# Experimental data taken from US20090130188A9, “Acrylic pressure sensitive adhesives” (National Starch and Chemical Investment Holding Company, priority 2005, published 2009).
# Read-outs that look alike come from different tables or passages of the source.
# Key:
# [1] = Cholesteryl dodecanoate added to adhesive solutions, mixed overnight at room temperature; format: physicochemical; settings: 1% on a solids basis
# Experimental: Cholesteryl dodecanoate, a model for a highly lipophilic drug, was added at 1% on a solids basis to the solutions of Example 7 and 8. These were then mixed overnight at room temperature.
# [2] = Ketoprofen added to adhesive solutions, mixed overnight, dissolved vs dispersed; format: physicochemical; settings: 15% on a solids basis
# [3] = for state of ketoprofen in dried adhesive film: dried 30 minutes at 60° C.
# [4] = film from conventional adhesive solution (Comparative Example 2)
dissolution of model active in adhesive solution ([1]; solution of Example 8 (δ 19.4)),"dissolution of ketoprofen in adhesive solution ([2]; adhesive solution of Example 2 (δ 19.0), tube A)","enthalpy of fusion by DSC [3, 4]","state of ketoprofen in dried adhesive film [3, 4]",state of ketoprofen in dried adhesive film ([3]; film from cyclohexane adhesive solution (Example 1)),Compound,dissolution of model active in adhesive solution ([1]; solution of Example 7 (ethanol)),"dissolution of ketoprofen in adhesive solution ([2]; adhesive solution of Example 1 (cyclohexane, δ 16.8), tube B)"
completely soluble,–,–,–,–,CCCCCCCCCCCC(=O)O[C@H]1CC[C@@]2(C)C(=CC[C@H]3[C@@H]4CC[C@H]([C@H](C)CCCC(C)C)[C@@]4(C)CC[C@@H]32)C1 [Cholesteryl dodecanoate],large quantity of undissolved model active,–
–,completely dissolved,zero,no visible crystals,undissolved crystals,CC(C(=O)O)c1cccc(C(=O)c2ccccc2)c1 (stereo not shown) [ketoprofen],–,most of the ketoprofen remained as a dispersed solid
